Marks after values point to notes of the source that are not given here.
How the values were obtained:
[1] = tested on: Male salt-sensitive Dahl rats; assay: Blood pressure (systolic and diastolic) and heart rate by telemetry in hypertensive Dahl rats; format: in vivo, rat; conditions: 24 hour average
Experimental: Direct blood pressure (systolic and diastolic) and heart rate was also measured by telemetry (Tables F—H and FIG. 4). Data in Tables F—H and depicted in FIGS. 4A-4C are 24 hour averages for the last 4 days before the start of the daily oral gavage of treatments (−4, −3, −2, −1) and for the days 1-17 during the treatments shown.

[2] = tested on: Male salt-sensitive Dahl rats; assay: Fasting free fatty acids (FFA) and adiponectin in treated Dahl rats; format: in vivo, rat; conditions: 3 weeks treatment; 40 mg/kg compound 1, 20 mg/kg rosiglitazone
Experimental: Doses of these compounds were chosen to produce the same metabolic effects in terms of reduction of triglycerides and elevation of adiponectin (Table E). Direct blood pressure (systolic and diastolic) and heart rate was also measured by telemetry (Tables F—H and FIG. 4).

[3] = day 1 of treatment, rosiglitazone 20 mg/kg, compound 1 40 mg/kg
[4] = day 2 of treatment, rosiglitazone 20 mg/kg, compound 1 40 mg/kg
[5] = day 3 of treatment, rosiglitazone 20 mg/kg, compound 1 40 mg/kg
[6] = day 4 of treatment, rosiglitazone 20 mg/kg, compound 1 40 mg/kg
[7] = day 5 of treatment, rosiglitazone 20 mg/kg, compound 1 40 mg/kg
[8] = day 6 of treatment, rosiglitazone 20 mg/kg, compound 1 40 mg/kg
[9] = day 7 of treatment, rosiglitazone 20 mg/kg, compound 1 40 mg/kg
[10] = day 8 of treatment, rosiglitazone 20 mg/kg, compound 1 40 mg/kg
[11] = day 9 of treatment, rosiglitazone 20 mg/kg, compound 1 40 mg/kg
[12] = day 10 of treatment, rosiglitazone 20 mg/kg, compound 1 40 mg/kg
[13] = day 11 of treatment, rosiglitazone 20 mg/kg, compound 1 40 mg/kg
[14] = day 12 of treatment, rosiglitazone 20 mg/kg, compound 1 40 mg/kg
[15] = day 13 of treatment, rosiglitazone 20 mg/kg, compound 1 40 mg/kg
[16] = day 14 of treatment, rosiglitazone 20 mg/kg, compound 1 40 mg/kg
[17] = day 15 of treatment, rosiglitazone 20 mg/kg, compound 1 40 mg/kg
[18] = day 16 of treatment, rosiglitazone 20 mg/kg, compound 1 40 mg/kg
[19] = day 17 of treatment, rosiglitazone 20 mg/kg, compound 1 40 mg/kg
[20] = day −1, before start of treatment
[21] = day −2, before start of treatment
[22] = day −3, before start of treatment
[23] = day −4, before start of treatment

With `CN(CCOc1ccc(CC2SC(=O)NC2=O)cc1)c1ccccn1` (centres unmarked) [Rosiglitazone, reference compound] the “Diastolic blood pressure measured by telemetry, Mean” value (shortened to “Diastolic blood pressure measured”) [1, 3] was 119, the Heart rate measured by telemetry, Mean [1, 3] was 407 bpm and the “Diastolic blood pressure measured” value [1, 4] was 121. The Heart rate measured by telemetry, Mean [1, 4] was 402 bpm, the “Systolic blood pressure measured by telemetry, Mean” value (“Systolic blood pressure measured” for short) [1, 4] was 172 and the “Diastolic blood pressure measured” value [1, 5] was 123. For the same compound, the Heart rate measured by telemetry, Mean [1, 5] was 405 bpm, the “Systolic blood pressure measured” value [1, 5] was 175 and the “Diastolic blood pressure measured” value [1, 6] was 124. For the same compound, the Heart rate measured by telemetry, Mean [1, 6] was 399 bpm, the “Systolic blood pressure measured” value [1, 6] was 177 and the “Diastolic blood pressure measured” value [1, 7] was 126. For the same compound, the Heart rate measured by telemetry, Mean [1, 7] was 398 bpm, the “Systolic blood pressure measured” value [1, 7] was 179 and the “Diastolic blood pressure measured” value [1, 8] was 126. The Heart rate measured by telemetry, Mean [1, 8] was 398 bpm, the “Systolic blood pressure measured” value [1, 8] was 179 and the “Diastolic blood pressure measured” value [1, 9] was 131. For the same compound, the Heart rate measured by telemetry, Mean [1, 9] was 393 bpm, the “Systolic blood pressure measured” value [1, 9] was 184 and the “Diastolic blood pressure measured” value [1, 10] was 135. For the same compound, the Heart rate measured by telemetry, Mean [1, 10] was 401 bpm, the “Systolic blood pressure measured” value [1, 10] was 188 and the “Diastolic blood pressure measured” value [1, 11] was 136. For the same compound, the Heart rate measured by telemetry, Mean [1, 11] was 398 bpm, the “Systolic blood pressure measured” value [1, 11] was 190 and the Heart rate measured by telemetry, Mean [1, 12] was 398 bpm. For the same compound, the “Systolic blood pressure measured” value [1, 12] was 192, the Heart rate measured by telemetry, Mean [1, 13] was 399 bpm and the “Systolic blood pressure measured” value [1, 13] was 194. The Heart rate measured by telemetry, Mean [1, 14] was 399 bpm, the “Systolic blood pressure measured” value [1, 14] was 196 and the Heart rate measured by telemetry, Mean [1, 15] was 395 bpm. The “Systolic blood pressure measured” value [1, 15] was 196, the Heart rate measured by telemetry, Mean [1, 16] was 393 bpm and the “Systolic blood pressure measured” value [1, 16] was 198. For the same compound, the Heart rate measured by telemetry, Mean [1, 17] was 398 bpm, the “Systolic blood pressure measured” value [1, 17] was 202 and the Heart rate measured by telemetry, Mean [1, 18] was 401 bpm. The “Systolic blood pressure measured” value [1, 18] was 204, the Heart rate measured by telemetry, Mean [1, 19] was 402 bpm and the “Systolic blood pressure measured” value [1, 19] was 204. For the same compound, the “Diastolic blood pressure measured” value [1, 20] was 124, the Heart rate measured by telemetry, Mean [1, 20] was 395 bpm and the “Systolic blood pressure measured” value [1, 20] was 173. The “Diastolic blood pressure measured” value [1, 21] was 127, the Heart rate measured by telemetry, Mean [1, 21] was 394 bpm and the “Systolic blood pressure measured” value [1, 21] was 176. The “Diastolic blood pressure measured” value [1, 22] was 124, the Heart rate measured by telemetry, Mean [1, 22] was 400 bpm and the “Systolic blood pressure measured” value [1, 22] was 171. For the same compound, the “Diastolic blood pressure measured” value [1, 23] was 124, the Heart rate measured by telemetry, Mean [1, 23] was 403 bpm and the “Systolic blood pressure measured” value [1, 23] was 174. The Adiponectin [2] was 36* and the FFA [2] was 0.77*.

— US8629159B2, “Thiazolidinedione analogues” (Metabolic Solutions Development Company, LLC, priority 2006, dated 2014)
